# Source: patent US20180200257A1, “METHODS FOR THE TREATMENT OF INFLAMMATORY DISORDERS” (Galapagos NV, priority 2015, published 2018)
# System: Subjects With Active Crohn's Disease With Evidence of Mucosal Ulceration
# Assay: Study 3 - Fecal calprotectin levels
# Format: in vivo, human
# Conditions: 200 mg; week 10; LOCF
# From the text: Double-Blind, Randomized, Placebo-Controlled, Multi-Centre Study to Investigate the Efficacy and Safety of Compound 1 in Subjects With Active Crohn's Disease With Evidence of Mucosal Ulceration.
# This is a double-blind, randomized, placebo-controlled, multi-centre Phase 2 study to investigate the efficacy and safety of Compound 1 administered once daily for the treatment of active CD with evidence of mucosal ulceration. The pharmacokinetics (including a PK substudy) and pharmacodynamics of Compound 1 and metabolite in CD will also be characterised.
# A total of 180 eligible subjects will be randomized to receive Compound 1 or placebo in addition to their stable background treatment (eg, corticosteroids, aminosalicylates, or CD-related antibiotics). The study will consist of 2 parts, with total treatment duration of 20 weeks. Randomization in Part 1 will be stratified according the subject's previous anti-TNF exposure/response, CRP level at Screening, and oral corticosteroid use at visit Day −1.
# After the first 10 weeks of treatment in Part 1, patients will be re-randomized for Part 2 as shown in the diagram below and will be stratified according to the subject's clinical response, previous anti-TNF exposure/response, and oral corticosteroid use at visit Day -1.
# Fecal calprotectin is a protein belonging to the S100 family and occurring in large amounts in neutrophil granulocytes, where it accounts for 5% of total proteins and 60% of cytoplasm proteins. When inflammatory processes occur, calprotectin is released due to the degranulation of neutrophil granulocytes.
# In bowel inflammation, calprotectin may be detected in the stool. The fecal levels provide direct information about the inflammation and is determined using a Calprest® enzyme immunoassay diagnostic kit (Eurospital Spa—Via Flavia 122-34147 Trieste—Italy; ref 9031).
smiles,measurement,value
"O=C(Nc1nc2cccc(-c3ccc(CN4CCS(=O)(=O)CC4)cc3)n2n1)C1CC1 [Compound 1, cyclopropanecarboxylic acid {5-[4-(1,1-dioxo-thiomorpholin-4-ylmethyl)-phenyl]-[1,2,4]triazolo[1,5-a]pyridin-2-yl}-amide]","Fecal calprotectectin normalizing high to normal (<50 mg/kg), % subjects normalizing",12%
same,"Fecal calprotectectin normalizing high to normal (>250 mg/kg to ≤250 mg/kg), % subjects normalizing",44%
same,"Fecal calprotectin mean, % CFB",73%
same,"Fecal calprotectin mean, CFB",-86.7 mg/kg
same,"Fecal calprotectin median, % CFB",−29%
same,"Fecal calprotectin median, CFB",-75.5 mg/kg
